The text below walks through data of PMC3747263 (PLoS ONE, 2013).

In one experiment the target is LecB (PA-IIL) (Pseudomonas aeruginosa, UniProt Q9HYN5). It counts as binding. The note with it: read-out: LecB / KD.
A further experiment addresses T1, BambL (Burkholderia ambifaria, UniProt Q0B4G1).
T1 construct: gene Bamb_5415
The experiment can be described thus: X-ray crystal structure of complex, […] Å. It counts as binding. The note with it: co-crystallised with 5 mM sugar; intra- and intermonomeric sites; reservoir pH 5.0.

LecB (PA-IIL), sequence (Q9HYN5 2-115 limits assumed): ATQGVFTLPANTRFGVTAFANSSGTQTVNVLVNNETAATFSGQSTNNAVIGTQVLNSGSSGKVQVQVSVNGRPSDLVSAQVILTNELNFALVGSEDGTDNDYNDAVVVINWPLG
T1 sequence (Q0B4G1 1-87 limits assumed): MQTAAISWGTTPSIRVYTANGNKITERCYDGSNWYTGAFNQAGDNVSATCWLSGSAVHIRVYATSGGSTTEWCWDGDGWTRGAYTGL

For the molecule `CC(=O)N[C@H]1[C@@H](O[C@H]2[C@@H](O)[C@@H](CO)OC(O)[C@@H]2O[C@@H]2O[C@@H](C)[C@@H](O)[C@@H](O)[C@@H]2O)O[C@H](CO)[C@H](O)[C@@H]1O` (some centres unmarked) [A tri], the Kd on LecB (PA-IIL) worked out at 10300 nM.

As to `CC(=O)N[C@H]1C(O)O[C@H](CO)[C@@H](O)[C@@H]1O[C@@H]1O[C@H](CO)[C@H](O)[C@H](O)[C@H]1O[C@@H]1O[C@@H](C)[C@@H](O)[C@@H](O)[C@@H]1O` (some centres unmarked) [H type 1], the Kd at LecB (PA-IIL) came to 1390 nM.

Turning to `CC(=O)N[C@H]1C(O)O[C@H](CO)[C@@H](O[C@@H]2O[C@H](CO)[C@H](O)[C@H](O)[C@H]2O[C@@H]2O[C@@H](C)[C@@H](O)[C@@H](O)[C@@H]2O)[C@@H]1O` (some centres unmarked) [H type 2], the Kd on LecB (PA-IIL) amounted to 480 nM.

For the molecule `CC(=O)N[C@H]1[C@H](O[C@H]2[C@@H](O)[C@@H](CO)OC(O)[C@@H]2O)O[C@H](CO)[C@@H](O[C@@H]2O[C@H](CO)[C@H](O)[C@H](O)[C@H]2O)[C@@H]1O[C@@H]1O[C@@H](C)[C@@H](O)[C@@H](O)[C@@H]1O` (some centres unmarked) [Le^x tetrasaccharide], the “X-ray crystal structure of complex, 1.6 Å” value at BambL is “BambL was cocrystallised with the Le^x tetrasaccharide”.

For `CC(=O)N[C@H]1[C@H]([C@H](O)[C@H](O)CO)O[C@@](O[C@H]2[C@@H](O)[C@@H](CO)O[C@@H](O[C@H]3[C@H](O[C@@H]4O[C@@H](C)[C@@H](O)[C@@H](O)[C@@H]4O)[C@@H](CO)OC(O)[C@@H]3NC(C)=O)[C@@H]2O)(C(=O)O)C[C@@H]1O` (some centres unmarked) [sLe^a], on LecB (PA-IIL), the Kd is 290 nM.
